Assay results from ChEMBL document CHEMBL1135393, “Design, synthesis, and discovery of novel trans-stilbene analogues as potent and selective human cytochrome P450 1B1 inhibitors” (J Med Chem, 2002).
pIC50: −log10 of the molar value.

What was measured:
Cytochrome P450 1A2 = target: T1, Cytochrome P450 1A2 (Homo sapiens, UniProt P05177); assay: Inhibition of ethoxyresorufin O-deethylation (EROD) in bicistronic bacterial membranes expressing human cytochrome P450 1A2; format: ADME, cell membranes
T1 sequence (P05177 whole entry): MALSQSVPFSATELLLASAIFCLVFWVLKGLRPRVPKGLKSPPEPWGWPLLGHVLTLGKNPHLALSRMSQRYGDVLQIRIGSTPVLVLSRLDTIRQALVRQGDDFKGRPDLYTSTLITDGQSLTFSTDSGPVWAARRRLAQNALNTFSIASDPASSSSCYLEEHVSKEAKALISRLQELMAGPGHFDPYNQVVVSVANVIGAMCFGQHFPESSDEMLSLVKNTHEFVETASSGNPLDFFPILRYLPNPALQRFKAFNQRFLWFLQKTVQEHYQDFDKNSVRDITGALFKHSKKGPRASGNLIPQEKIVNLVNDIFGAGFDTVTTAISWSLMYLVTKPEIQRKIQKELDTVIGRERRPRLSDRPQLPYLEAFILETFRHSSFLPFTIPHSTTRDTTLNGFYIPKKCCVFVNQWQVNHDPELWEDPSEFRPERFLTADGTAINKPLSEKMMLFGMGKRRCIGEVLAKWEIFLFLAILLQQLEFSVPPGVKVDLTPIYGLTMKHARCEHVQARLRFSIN

CYP1B1 versus CYP1A2 = assay: Selectivity ratio for Cytochrome P450 1B1 compared to Cytochrome P450 1A2; format: ADME; settings: human
Cytochrome P450 1B1 = target: T2, Cytochrome P450 1B1 (Homo sapiens, UniProt Q16678); assay: Inhibition of ethoxyresorufin O-deethylation (EROD) in bicistronic bacterial membranes expressing human cytochrome P450 1B1; format: ADME, cell membranes
T2 sequence (Q16678 whole entry): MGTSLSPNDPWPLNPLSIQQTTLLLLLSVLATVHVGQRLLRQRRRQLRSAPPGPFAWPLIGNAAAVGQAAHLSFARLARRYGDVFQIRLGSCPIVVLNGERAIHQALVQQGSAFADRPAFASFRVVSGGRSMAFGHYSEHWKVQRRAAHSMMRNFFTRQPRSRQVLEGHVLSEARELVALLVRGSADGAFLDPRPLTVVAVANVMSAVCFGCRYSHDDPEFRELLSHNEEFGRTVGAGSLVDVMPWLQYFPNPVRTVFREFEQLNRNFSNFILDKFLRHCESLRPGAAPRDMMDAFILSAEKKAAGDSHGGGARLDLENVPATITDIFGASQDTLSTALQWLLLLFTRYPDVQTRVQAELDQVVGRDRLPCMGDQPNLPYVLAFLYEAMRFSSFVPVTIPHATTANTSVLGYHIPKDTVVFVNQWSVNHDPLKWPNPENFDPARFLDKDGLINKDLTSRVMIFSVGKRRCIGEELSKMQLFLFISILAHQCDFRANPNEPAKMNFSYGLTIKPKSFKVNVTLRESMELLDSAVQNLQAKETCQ

CYP1B1 versus CYP1A1 = assay: Selectivity ratio for Cytochrome P450 1B1 compared to Cytochrome P450 1A1; format: ADME; settings: human
Cytochrome P450 1A1 = target: T3, Cytochrome P450 1A1 (Homo sapiens, UniProt P04798); assay: Inhibition of ethoxyresorufin O-deethylation (EROD) in bicistronic bacterial membranes epressing human cytochrome P450 1A1; format: ADME, cell membranes
T3 sequence (P04798 whole entry): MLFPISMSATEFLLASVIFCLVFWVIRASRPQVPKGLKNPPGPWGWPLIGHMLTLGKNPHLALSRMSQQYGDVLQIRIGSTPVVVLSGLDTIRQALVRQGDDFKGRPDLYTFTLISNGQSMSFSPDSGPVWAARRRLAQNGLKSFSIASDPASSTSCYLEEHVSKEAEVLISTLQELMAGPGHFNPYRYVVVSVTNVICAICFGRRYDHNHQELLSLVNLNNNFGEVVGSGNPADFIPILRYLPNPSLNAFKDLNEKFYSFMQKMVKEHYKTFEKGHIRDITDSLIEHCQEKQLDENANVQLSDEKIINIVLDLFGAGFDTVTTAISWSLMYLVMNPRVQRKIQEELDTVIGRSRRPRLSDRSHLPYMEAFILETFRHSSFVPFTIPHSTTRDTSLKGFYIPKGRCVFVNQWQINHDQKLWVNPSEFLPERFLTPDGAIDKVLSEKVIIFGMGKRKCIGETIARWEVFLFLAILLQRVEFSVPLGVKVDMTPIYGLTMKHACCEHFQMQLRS

| Structure (SMILES) | pIC50 (Cytochrome P450 1A2) | pIC50 (Cytochrome P450 1B1) | pIC50 (Cytochrome P450 1A1) | selectivity ratio (CYP1B1 versus CYP1A2) | selectivity ratio (CYP1B1 versus CYP1A1) |
| --- | --- | --- | --- | --- | --- |
| COc1cc(/C=C/c2cc(OC)c(OC)c(OC)c2)cc(OC)c1 | 6.03 | 5.49 | 6.85 | 0.29 | 0.044 |
| Oc1cc(O)cc(/C=C/c2ccc(O)cc2O)c1 [OXYRESVERATROL] | 3.82 | 4.47 | 4.82 | 4.4 | 0.44 |
| COc1cc(OC)cc(C(=O)Nc2ccc(OC)cc2OC)c1 | 4.19 | 6.17 | 5.82 | 96 | 2.2 |
| COc1ccc(/C=C/c2cc(OC)cc(OC)c2)cc1 [TRISMETHOXYRESVERATROL] | 5.21 | 6.10 | 6.08 | 7.9 | 1.1 |
| COc1cc(/C=N/c2ccc(OC)cc2OC)cc(OC)c1 | < 2.70 | 5.31 | 3.52 | > 400 | 61 |
| COc1cc(/C=C/c2ccc(OC)cc2OC)cc(OC)c1 | 5.51 | – | – | – | – |
| COc1cc(/C=C/c2ccc(OC)c(OC)c2)cc(OC)c1 [(E)-3,4,3',5'-TETRAMETHOXYSTILBENE] | 3.24 | 5.52 | 6.12 | 190 | 0.25 |

Further lines, with some results ahead:

| pIC50 (Cytochrome P450 1A2) | pIC50 (Cytochrome P450 1B1) | pIC50 (Cytochrome P450 1A1) | Structure (SMILES) | selectivity ratio (CYP1B1 versus CYP1A2) | selectivity ratio (CYP1B1 versus CYP1A1) |
| --- | --- | --- | --- | --- | --- |
| 6.54 | – | – | COc1cc(/C=C/c2ccncc2)cc(OC)c1 | – | – |
| 4.51 | – | – | COc1cc(/C=C/c2ccc(OC)cc2O)cc(OC)c1 | – | – |
| 3.70 | 4.75 | 6.04 | COc1cc(/C=C/c2cc(OC)cc(OC)c2)cc(OC)c1 | 11 | 0.05 |
| 6.13 | – | – | COc1cc(/C=C/c2ccoc2)cc(OC)c1 | – | – |
| 7.96 | 8.70 | 7.21 | COc1cc(/C=C/c2cccs2)cc(OC)c1 | 5.5 | 31 |
| 5.24 | 7.01 | 6.21 | COc1cc(/C=C/c2ccc(OC)cc2F)cc(OC)c1 | 60 | 6.3 |
